In patent US20260306527A1, “PRMT INHIBITOR COMPOUNDS AND THE USES THEREOF” (Purdue Research Foundation, priority 2023, published 2026):
“Also recorded” adds a separate entry of the source. Like-named read-outs stand apart in the source and are kept apart here.

What was measured:
Format in all cases: biochemical
PRMT1 = target: T1, PRMT1 (Homo sapiens, UniProt Q99873); assay: SAHH-coupled fluorescence assay, inhibition of PRMT1
T1 construct: made in house
Method: (§1) A fluorescence-based SAHH-coupled assay was applied to study the inhibition activity of all synthesized compounds on PRMT 1 and 3.
(§2) The PRMT1 methylation assay was performed under the following conditions in a final well volume of 100 μL: 2.5 mM HEPES (pH=7.0), 25 mM NaCl, 25 μM EDTA, 50 μM TCEP, 0.01% Triton X-100, 5 μM SAHH, 0.1 μM PRMT1, 10 μM AdoMet, and 10 μM ThioGlo4. […] The fluorescence signal was monitored on a BMG CLARIOstar microplate reader with excitation at 400 nm and emission at 465 nm for 15 min. Data were processed using GraphPad Prism software 8.0.
(§3) Next, the inhibition activity of the library was investigated for five PRMT members from type I PRMTs.
as §2, with “A fluorescence-based SAHH-coupled assay was applied to determine the inhibition activity of all synthesized compounds on PRMT 1 and 3. The PRMT1” for “The PRMT1”, “software 8.0. All experiments were performed in duplicate.” for “software 8.0.”

PRMT8 = PRMT8 (Homo sapiens, UniProt Q9NR22); assay: radioactive assay (Reaction Biology Corp.), inhibition of PRMT8
Sequence of PRMT8 (Q9NR22 whole entry, species assumed): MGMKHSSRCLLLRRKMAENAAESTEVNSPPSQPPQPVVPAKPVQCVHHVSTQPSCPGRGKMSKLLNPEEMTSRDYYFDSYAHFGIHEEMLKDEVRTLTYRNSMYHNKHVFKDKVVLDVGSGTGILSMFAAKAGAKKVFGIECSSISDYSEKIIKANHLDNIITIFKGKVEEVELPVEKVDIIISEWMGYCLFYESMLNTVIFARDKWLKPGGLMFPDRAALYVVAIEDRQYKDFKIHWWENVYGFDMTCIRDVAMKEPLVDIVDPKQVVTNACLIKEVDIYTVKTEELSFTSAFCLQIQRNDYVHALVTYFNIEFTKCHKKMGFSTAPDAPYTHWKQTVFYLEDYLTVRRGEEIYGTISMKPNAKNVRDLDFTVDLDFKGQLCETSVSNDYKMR
Method: as §3
(§4) The PRMT 4, 6 and 8 methylation assays were performed by Reaction Biology corp.

PRMT6 = PRMT6 (Homo sapiens, UniProt Q96LA8); assay: radioactive assay (Reaction Biology Corp.), inhibition of PRMT6
Sequence of PRMT6 (Q96LA8 whole entry, species assumed): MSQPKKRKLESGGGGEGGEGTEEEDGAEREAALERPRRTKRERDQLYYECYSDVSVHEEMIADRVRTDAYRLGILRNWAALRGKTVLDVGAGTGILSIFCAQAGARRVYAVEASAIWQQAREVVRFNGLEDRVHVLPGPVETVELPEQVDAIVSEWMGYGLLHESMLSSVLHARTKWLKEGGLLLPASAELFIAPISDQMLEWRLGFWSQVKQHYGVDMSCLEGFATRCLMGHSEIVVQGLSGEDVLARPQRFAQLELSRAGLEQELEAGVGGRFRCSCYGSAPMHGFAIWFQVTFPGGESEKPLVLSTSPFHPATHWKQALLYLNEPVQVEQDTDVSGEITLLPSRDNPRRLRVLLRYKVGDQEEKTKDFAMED
Method: as §3, §4

PRMT4 = target: T2, PRMT4 (Homo sapiens, UniProt Q86X55); assay: radioactive assay (Reaction Biology Corp.), inhibition of PRMT4
T2 sequence (Q86X55 1-608): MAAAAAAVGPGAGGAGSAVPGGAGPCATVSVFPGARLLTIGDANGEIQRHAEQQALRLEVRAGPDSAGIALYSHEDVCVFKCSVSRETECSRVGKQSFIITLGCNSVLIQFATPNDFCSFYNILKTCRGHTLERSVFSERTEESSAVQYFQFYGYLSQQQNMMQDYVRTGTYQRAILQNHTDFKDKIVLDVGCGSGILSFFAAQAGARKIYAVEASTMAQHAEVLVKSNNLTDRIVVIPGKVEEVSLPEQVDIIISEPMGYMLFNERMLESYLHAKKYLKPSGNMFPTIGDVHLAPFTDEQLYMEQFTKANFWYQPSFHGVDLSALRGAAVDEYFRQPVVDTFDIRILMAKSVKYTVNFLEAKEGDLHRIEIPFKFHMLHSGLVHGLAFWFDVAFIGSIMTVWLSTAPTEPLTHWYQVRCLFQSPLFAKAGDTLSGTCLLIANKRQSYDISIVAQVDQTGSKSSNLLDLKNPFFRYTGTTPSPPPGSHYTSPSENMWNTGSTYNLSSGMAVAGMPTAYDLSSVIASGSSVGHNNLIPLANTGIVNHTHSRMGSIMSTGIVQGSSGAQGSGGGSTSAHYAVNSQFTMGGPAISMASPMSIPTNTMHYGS
Method: as §3, §4

PRMT3 = PRMT3 (Homo sapiens, UniProt O60678); assay: SAHH-coupled fluorescence assay, inhibition of PRMT3; parameters: PRMT3 (residues 211-531) was cloned into the pET28a-MHL expression vector; tag of the pET28a-MHL vector (not described); made in house; host or cells: Escherichia coli BL21(DE3)
Sequence of PRMT3 (O60678 211-531): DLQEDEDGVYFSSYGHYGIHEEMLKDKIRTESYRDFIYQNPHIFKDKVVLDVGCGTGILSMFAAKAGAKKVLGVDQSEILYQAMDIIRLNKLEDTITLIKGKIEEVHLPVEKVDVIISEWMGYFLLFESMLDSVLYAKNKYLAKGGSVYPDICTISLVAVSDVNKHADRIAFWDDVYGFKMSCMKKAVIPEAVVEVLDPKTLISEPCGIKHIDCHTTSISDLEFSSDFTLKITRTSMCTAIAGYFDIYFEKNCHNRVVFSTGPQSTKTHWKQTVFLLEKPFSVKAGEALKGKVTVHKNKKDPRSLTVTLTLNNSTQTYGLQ
Method: as §1
(§5) The PRMT3 methylation assay was performed under the following conditions in a final well volume of 100 μL: 20 mM Tris (pH=7.5), 0.01% Triton X-100, 5 μM SAHH, 0.25 μM PRMT3, 30 μM AdoMet, and 15 μM ThioGlo4. […] Fluorescence was monitored on a BMG CLARIOstar microplate reader with excitation 380 nm and emission 505 nm. Data were processed by using GraphPad Prism software 8.0. All experiments were performed in duplicate.
as §3
as §5, with “8.0.” for “8.0. All experiments were performed in duplicate.”

T1 sequence (Q99873 whole entry, species assumed): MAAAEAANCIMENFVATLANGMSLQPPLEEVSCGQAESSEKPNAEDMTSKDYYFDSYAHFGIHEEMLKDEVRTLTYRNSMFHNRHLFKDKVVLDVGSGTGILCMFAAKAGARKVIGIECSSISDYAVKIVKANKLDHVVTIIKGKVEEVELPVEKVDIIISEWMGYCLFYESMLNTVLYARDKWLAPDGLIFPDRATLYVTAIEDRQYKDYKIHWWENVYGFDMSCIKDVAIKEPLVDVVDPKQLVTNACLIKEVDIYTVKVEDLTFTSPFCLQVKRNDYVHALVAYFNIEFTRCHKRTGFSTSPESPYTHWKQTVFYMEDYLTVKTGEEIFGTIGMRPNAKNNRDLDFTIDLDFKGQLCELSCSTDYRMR

PRMT1 inhibition (PRMT1)	inhibition at 10 µM (PRMT8) [%]	inhibition at 10 µM (PRMT1) [%]	inhibition at 10 µM (PRMT6) [%]	PRMT4 inhibition (PRMT4)	inhibition at 10 µM (PRMT4) [%]	inhibition at 10 µM (PRMT3) [%]	PRMT6 inhibition (PRMT6; 10 μM)	IC50 (PRMT1; read-out: IC50 FOR PRMT1) [µM]	IC50 (PRMT1; read-out: IC50[μM] | PRMT1) [µM]	Compound
inhibitory effect of YD1375 on PRMT1										N=C(NCCCSCC1CC(n2ccc3c(NCCCc4ccccc4)ncnc32)C(O)C1O)Nc1cccc(Br)c1 (stereo not drawn) [YD1375]
	37	3	19		43	5				COc1cc2nc(-c3ccc(C(F)(F)F)cc3)nc(NCCSC[C@H]3O[C@@H](n4cnc5c(N)ncnc54)[C@H](O)[C@@H]3O)c2cc1OC [Compound 12e]
	0	13	72		40	3				Nc1ccc(-c2ccc(CNC(=O)NCCSC[C@H]3O[C@@H](n4cnc5c(N)ncnc54)[C@H](O)[C@@H]3O)cc2)cc1 [Compound 8a]
	-1	8	22		53	6				Nc1ncnc2c1ncn2[C@@H]1O[C@H](CSCCNC(=O)NCCc2ccccc2)[C@@H](O)[C@H]1O [Compound 7c, 1-(2-((((2S,3S,4R,5R)-5-(6-amino-9H-purin-9-yl)-3,4-dihydroxytetrahydrofuran-2-yl)methyl)thio)ethyl)-3-phenethylurea]
	18	1	16		36	12				COc1cc2nc(-c3ccccc3O)nc(NCCSC[C@H]3O[C@@H](n4cnc5c(N)ncnc54)[C@H](O)[C@@H]3O)c2cc1OC [Compound 12h]
	98	95	95		100	46				N=C(NCCCSC[C@H]1O[C@@H](n2cnc3c(N)ncnc32)[C@H](O)[C@@H]1O)Nc1cccc(-c2ccoc2)c1 [Compound 6i]
	69	15	43		99	10				Nc1ncnc2c1ncn2[C@@H]1O[C@H](CSCCNCc2cccc(-c3ccncc3)c2)[C@@H](O)[C@H]1O [Compound 10k]
	23	1	85		69	4	selective inhibition to PRMT6			COc1cc2nc(-c3ccc(Cl)cc3)nc(NCCSC[C@H]3O[C@@H](n4cnc5c(N)ncnc54)[C@H](O)[C@@H]3O)c2cc1OC [Compound 12a]
	74	15	55		100	13				Nc1ncnc2c1ncn2[C@@H]1O[C@H](CSCCNCc2cccc(-c3cccc(O)c3)c2)[C@@H](O)[C@H]1O [Compound 10i]
	16	18	-6		62	5				Nc1ncnc2c1ncn2[C@@H]1O[C@H](CSCCCNC(=O)NCCCc2ccccc2)[C@@H](O)[C@H]1O [Compound 7q]
	83	89	89		44	10		0.48 ± 0.079		N=C(NCCCSC[C@H]1O[C@@H](n2cnc3c(NCCCc4ccccc4)ncnc32)[C@H](O)[C@@H]1O)NCc1ccccc1 [Compound 19k]
	66	73	75			1			3 ± 0.16	N=C(NCCSC[C@H]1O[C@@H](n2cnc3c(N)ncnc32)[C@H](O)[C@@H]1O)Nc1ccccc1 [Compound 5b]
	87	90	86		26	9		0.5 ± 0.075		N=C(NCCCSC[C@H]1O[C@@H](n2cnc3c(NCCCc4ccccc4)ncnc32)[C@H](O)[C@@H]1O)NCCc1ccccc1 [Compound 19l]
	79	89	88		44	10		0.75 ± 0.046		N=C(NCCCSC[C@H]1O[C@@H](n2cnc3c(NCCCc4ccccc4)ncnc32)[C@H](O)[C@@H]1O)NC1CCCCC1 [Compound 19e]
	91	80	93		50	8		0.55 ± 0.051		N=C(NCCCSC[C@H]1O[C@@H](n2cnc3c(NCCCc4ccccc4)ncnc32)[C@H](O)[C@@H]1O)NC1CCC1 [Compound 19c]
	38	2	-4		47	9				Nc1ncnc2c1ncn2[C@@H]1O[C@H](CSCCOc2ccc(-c3ccc(Cl)cc3)cc2)[C@@H](O)[C@H]1O [Compound 14a]
				potent and selective PRMT4 inhibitors						Nc1ncnc2c1ncn2[C@@H]1O[C@H](CN(CCCNCc2cccc(Br)c2)CCNC(=O)NCc2ccccc2)[C@@H](O)[C@H]1O [YD1349]
	25	2	16		1	10				COc1cc2nc(-c3ccoc3)nc(NCCSC[C@H]3O[C@@H](n4cnc5c(N)ncnc54)[C@H](O)[C@@H]3O)c2cc1OC [Compound 12d]
	97	95	98		97	61			0.21 ± 0.0066	N=C(NCCCSC[C@H]1O[C@@H](n2cnc3c(N)ncnc32)[C@H](O)[C@@H]1O)NCc1ccccc1 [Compound 5e]
				selective and potent PRMT4 inhibitor						N=C(NCCCN(CCNC(=O)NCc1ccccc1)C[C@H]1O[C@@H](n2cnc3c(N)ncnc32)[C@H](O)[C@@H]1O)NC1CCCC1 [YD1289]
	47	11	58			8				Nc1ncnc2c1ncn2[C@@H]1O[C@H](CSCCNCc2cccc(Br)c2)[C@@H](O)[C@H]1O [Compound 9a]
				potent and selective PRMT4 inhibitors						Nc1ncnc2c1ncn2[C@@H]1O[C@H](CN(CCCNCc2cccc(-c3ccc(Cl)cc3)c2)CCNC(=O)NCc2ccccc2)[C@@H](O)[C@H]1O [YD1305]

Compound	PRMT1 inhibition (PRMT1)	inhibition at 10 µM (PRMT8) [%]	inhibition at 10 µM (PRMT1) [%]	inhibition at 10 µM (PRMT6) [%]	PRMT4 inhibition (PRMT4)	inhibition at 10 µM (PRMT4) [%]	inhibition at 10 µM (PRMT3) [%]	PRMT6 inhibition (PRMT6; 10 μM)	IC50 (PRMT1; read-out: IC50 FOR PRMT1) [µM]	IC50 (PRMT1; read-out: IC50[μM] | PRMT1) [µM]
Nc1ncnc2c1ncn2[C@@H]1O[C@H](CSCCNCc2cccc(-c3ccc(Cl)cc3)c2)[C@@H](O)[C@H]1O [Compound 10a]		71	16	57	equal potency on PRMT4; also recorded: more potent PRMT4 inhibition activity than SGC8158	99	16			
